Data set [1] is described as follows: 90 minute cytotoxicity assay (LDH release), renal toxicity. Conditions: human. The class given is cell-based. The procedure: (§1) Cell culture: RPTEC were maintained in MEM media supplemented with growth factors. HEPG2 cell line was maintained in Eagle's Minimum Essential Medium (EMEM) supplemented with fetal bovine serum to a final concentration of 10%.
90 minute cytotoxicity assay: Cells were plated in a 96-well format, and after overnight incubation, media was replaced with fresh media. Serial dilutions of StAMPs from a 5 mg/mL water stock, or vehicle, were added to the cells in a final volume of 100 μl. After incubating at 37° C. for 90 min, 50 μl of cell culture media was transferred to a clear 96-well plate, incubated with 50 μl of lactate dehydrogenase (LDH) assay reagent for 10 min, and absorbance measured at 490 nm on a microplate reader.
(§2) Renal toxicity was measured after 90 minutes of incubation, while liver toxicity was measured after 48 hours of incubation with StAMPs. N/A=not tested.

Data set [2] in a line: 48 hours cytotoxicity assay (CellTiter-Glo), liver toxicity. It is filed as cell-based. Conditions: human. The procedure: as §1
48 hours cytotoxicity assay: Cells were plated in a 96-well format, and after 4 hour incubation to allow attachment, serial dilutions of StAMPs from a 5 mg/mL water stock, or vehicle, were then added to the cells in a final volume of 100 μl. After incubating at 37° C. for 48 hours, 100 μl of CellTiter-Glo® reagent was added to the cells, and the plates were incubated 10 minutes at room temperature. Luminescence was then measured on a microplate reader.
as §2

Each structure is given as a SMILES string. In brackets after ≈: the same amount, converted by molar mass. Bridge positions count the residues as written; N and C are the ends. Square brackets hold non-standard residues; d marks the D form. Peptide text beside a SMILES is read from it. S5 = C=CCCC[C@](C)(N)C(=O)O

`CC[C@H](C)[C@H](NC(=O)[C@H](CCCCN)NC(=O)[C@H](CCCCN)NC(=O)CNC(=O)[C@H](CCCCN)NC(=O)[C@]1(C)CCCC=CCCC[C@](C)(NC(=O)[C@@H](N)CCCCN)C(=O)N[C@@H](Cc2ccccc2)C(=O)N[C@@H](CO)C(=O)N[C@@H](CCCCN)C(=O)N1)C(=O)N[C@@H](CCCCN)C(=O)N[C@@H](CC(N)=O)C(=O)N[C@@H](CC(C)C)C(=O)N[C@@]1(C)CCCC=CCCC[C@@](C)(C(=O)N[C@@H](CCCCN)C(=O)NCC(N)=O)NC(=O)CNC(=O)[C@H](CO)NC(=O)[C@H]([C@@H](C)CC)NC1=O` [compound 25] (H-K[S5]FSK[S5]KGKKIKNL[S5]ISG[S5]KG-NH2; staple 2-6, 15-19) came in with an IC50 at 90 min in data set [1] of 109 µg/mL (≈ 46.2 µM). Moreover, in data set [2], the IC50 at 48 hours was 49 µg/mL (≈ 20.8 µM).
`CC[C@H](C)[C@H](NC(=O)[C@H](CCCCN)NC(=O)[C@H](CCCCN)NC(=O)CNC(=O)[C@H](CCCCN)NC(=O)[C@]1(C)CCCC=CCCC[C@](C)(NC(=O)CN)C(=O)N[C@@H](Cc2ccccc2)C(=O)N[C@@H](CCCCN)C(=O)N[C@@H](CCCCN)C(=O)N1)C(=O)N[C@@H](CCCCN)C(=O)N[C@@H](CC(N)=O)C(=O)N[C@@H](CC(C)C)C(=O)N[C@@]1(C)CCCC=CCCC[C@@](C)(C(=O)N[C@@H](CCCCN)C(=O)NCC(N)=O)NC(=O)CNC(=O)[C@H](CO)NC(=O)[C@H]([C@@H](C)CC)NC1=O` [compound 26] (H-G[S5]FKK[S5]KGKKIKNL[S5]ISG[S5]KG-NH2; staple 2-6, 15-19) had an IC50 at 90 min in data set [1] of 32 µg/mL (≈ 13.7 µM). In addition, the IC50 at 48 hours in data set [2] amounted to 27 µg/mL (≈ 11.6 µM).
In data set [1], `CC[C@H](C)[C@H](NC(=O)[C@H](CCCCN)NC(=O)[C@H](CCCCN)NC(=O)[C@H](CCCCN)NC(=O)[C@H](CCCCN)NC(=O)[C@]1(C)CCCC=CCCC[C@](C)(NC(=O)CN)C(=O)N[C@@H](Cc2ccccc2)C(=O)N[C@@H](CO)C(=O)N[C@@H](CCCCN)C(=O)N1)C(=O)N[C@@H](CCCCN)C(=O)N[C@@H](CC(N)=O)C(=O)N[C@@H](CC(C)C)C(=O)N[C@@]1(C)CCCC=CCCC[C@@](C)(C(=O)N[C@@H](CCCCN)C(=O)NCC(N)=O)NC(=O)CNC(=O)[C@H](CO)NC(=O)[C@H]([C@@H](C)CC)NC1=O` [compound 27] (H-G[S5]FSK[S5]KKKKIKNL[S5]ISG[S5]KG-NH2; staple 2-6, 15-19) displayed an IC50 at 90 min of 42 µg/mL (≈ 17.8 µM). The compound also gave an IC50 at 48 hours in data set [2] of 35 µg/mL (≈ 14.8 µM).
On to `CC[C@H](C)[C@H](NC(=O)[C@H](CCCCN)NC(=O)[C@H](CCCCN)NC(=O)CNC(=O)[C@H](CCCCN)NC(=O)[C@]1(C)CCCC=CCCC[C@](C)(NC(=O)CN)C(=O)N[C@@H](Cc2ccccc2)C(=O)N[C@@H](CO)C(=O)N[C@@H](CCCCN)C(=O)N1)C(=O)N[C@@H](CCCCN)C(=O)N[C@@H](CCCCN)C(=O)N[C@@H](CC(C)C)C(=O)N[C@@]1(C)CCCC=CCCC[C@@](C)(C(=O)N[C@@H](CCCCN)C(=O)NCC(N)=O)NC(=O)CNC(=O)[C@H](CO)NC(=O)[C@H]([C@@H](C)CC)NC1=O` [compound 29] (H-G[S5]FSK[S5]KGKKIKKL[S5]ISG[S5]KG-NH2; staple 2-6, 15-19), for which the IC50 at 90 min in data set [1] was 27 µg/mL (≈ 11.7 µM). In data set [2], this compound returned an IC50 at 48 hours of 22 µg/mL (≈ 9.55 µM).
The compound `CC[C@H](C)[C@H](NC(=O)[C@H](CCCCN)NC(=O)[C@H](CCCCN)NC(=O)CNC(=O)[C@H](CCCCN)NC(=O)[C@]1(C)CCCC=CCCC[C@](C)(NC(=O)CN)C(=O)N[C@@H](Cc2ccccc2)C(=O)N[C@@H](CO)C(=O)N[C@@H](CCCCN)C(=O)N1)C(=O)N[C@@H](CCCCN)C(=O)N[C@@H](CC(N)=O)C(=O)N[C@@H](CCCCN)C(=O)N[C@@]1(C)CCCC=CCCC[C@@](C)(C(=O)N[C@@H](CCCCN)C(=O)NCC(N)=O)NC(=O)CNC(=O)[C@H](CO)NC(=O)[C@H]([C@@H](C)CC)NC1=O` [compound 30] (H-G[S5]FSK[S5]KGKKIKNK[S5]ISG[S5]KG-NH2; staple 2-6, 15-19) returned an IC50 at 90 min in data set [1] above 200 µg/mL. Besides, in data set [2], the IC50 at 48 hours is above 200 µg/mL.
`CC[C@H](C)[C@H](NC(=O)[C@H](CCCCN)NC(=O)[C@H](CCCCN)NC(=O)CNC(=O)[C@H](CCCCN)NC(=O)[C@]1(C)CCCC=CCCC[C@](C)(NC(=O)CN)C(=O)N[C@@H](Cc2ccccc2)C(=O)N[C@@H](CO)C(=O)N[C@@H](CCCCN)C(=O)N1)C(=O)N[C@@H](CCCCN)C(=O)N[C@@H](CC(N)=O)C(=O)N[C@@H](CC(C)C)C(=O)N[C@@]1(C)CCCC=CCCC[C@@](C)(C(=O)N[C@@H](CCCCN)C(=O)NCC(N)=O)NC(=O)CNC(=O)[C@H](CO)NC(=O)[C@H](CCCCN)NC1=O` [compound 31] (H-G[S5]FSK[S5]KGKKIKNL[S5]KSG[S5]KG-NH2; staple 2-6, 15-19) yielded an IC50 at 90 min in data set [1] of 116 µg/mL (≈ 50.3 µM). This compound yielded an IC50 at 48 hours in data set [2] of 86 µg/mL (≈ 37.3 µM).
For `CC[C@H](C)[C@H](NC(=O)[C@H](CCCCN)NC(=O)[C@H](CCCCN)NC(=O)CNC(=O)[C@H](CCCCN)NC(=O)[C@]1(C)CCCC=CCCC[C@](C)(NC(=O)CN)C(=O)N[C@@H](Cc2ccccc2)C(=O)N[C@@H](CO)C(=O)N[C@@H](CCCCN)C(=O)N1)C(=O)N[C@@H](CCCCN)C(=O)N[C@@H](CC(N)=O)C(=O)N[C@@H](CC(C)C)C(=O)N[C@@]1(C)CCCC=CCCC[C@@](C)(C(=O)N[C@@H](CCCCN)C(=O)NCC(N)=O)NC(=O)CNC(=O)[C@H](CCCCN)NC(=O)[C@H]([C@@H](C)CC)NC1=O` [compound 32] (H-G[S5]FSK[S5]KGKKIKNL[S5]IKG[S5]KG-NH2; staple 2-6, 15-19), the IC50 at 90 min in data set [1] was 33 µg/mL (≈ 14.2 µM). Also, the IC50 at 48 hours in data set [2] was 25 µg/mL (≈ 10.7 µM).
For `CC[C@H](C)[C@H](NC(=O)[C@H](CCCCN)NC(=O)[C@H](CCCCN)NC(=O)CNC(=O)[C@H](CCCCN)NC(=O)[C@]1(C)CCCC=CCCC[C@](C)(NC(=O)CN)C(=O)N[C@@H](Cc2ccccc2)C(=O)N[C@@H](CO)C(=O)N[C@@H](CCCCN)C(=O)N1)C(=O)N[C@@H](CCCCN)C(=O)N[C@@H](CC(N)=O)C(=O)N[C@@]1(C)CCCC=CCCC[C@@](C)(C(=O)N[C@@H](CC(C)C)C(=O)N[C@@H](CCCCN)C(=O)NCC(N)=O)NC(=O)[C@H](CO)NC(=O)[C@H]([C@@H](C)CC)NC(=O)[C@H](CC(C)C)NC1=O` [compound 33] (H-G[S5]FSK[S5]KGKKIKN[S5]LIS[S5]LKG-NH2; staple 2-6, 14-18), in that order: 11 µg/mL (≈ 4.69 µM) and 13 µg/mL (≈ 5.54 µM).
For the compound `CC[C@H](C)[C@H](NC(=O)[C@H](CCCCN)NC(=O)[C@H](CCCCN)NC(=O)CNC(=O)[C@H](CCCCN)NC(=O)[C@]1(C)CCCC=CCCC[C@](C)(NC(=O)CN)C(=O)N[C@@H](Cc2ccccc2)C(=O)N[C@@H](CO)C(=O)N[C@@H](CCCCN)C(=O)N1)C(=O)N[C@@H](CCCCN)C(=O)N[C@@]1(C)CCCC=CCCC[C@@](C)(C(=O)NCC(=O)N[C@@H](CC(C)C)C(=O)N[C@@H](CCCCN)C(=O)NCC(N)=O)NC(=O)[C@H]([C@@H](C)CC)NC(=O)[C@H](CC(C)C)NC(=O)[C@H](CC(C)C)NC1=O` [compound 34] (H-G[S5]FSK[S5]KGKKIK[S5]LLI[S5]GLKG-NH2; staple 2-6, 13-17), the midpoint of inhibition in data set [1], the IC50 at 90 min, lay at 35 µg/mL (≈ 15.1 µM). In data set [2], the IC50 at 48 hours was 22 µg/mL (≈ 9.5 µM).
For `CC[C@H](C)[C@H](NC(=O)[C@]1(C)CCCC=CCCC[C@](C)(NC(=O)[C@H](CCCCN)NC(=O)[C@H](CCCCN)NC(=O)CNC(=O)[C@H](CCCCN)NC(=O)[C@]2(C)CCCC=CCCC[C@](C)(NC(=O)CN)C(=O)N[C@@H](Cc3ccccc3)C(=O)N[C@@H](CO)C(=O)N[C@@H](CCCCN)C(=O)N2)C(=O)N[C@@H](CCCCN)C(=O)N[C@@H](CC(N)=O)C(=O)N[C@@H](CC(C)C)C(=O)N1)C(=O)N[C@@H](CO)C(=O)NCC(=O)N[C@@H](CC(C)C)C(=O)N[C@@H](CCCCN)C(=O)NCC(N)=O` [compound 35] (H-G[S5]FSK[S5]KGKK[S5]KNL[S5]ISGLKG-NH2; staple 2-6, 11-15), in data set [1], the IC50 at 90 min turned out to be 27 µg/mL (≈ 11.8 µM). In data set [2], this compound gave an IC50 at 48 hours of 23 µg/mL (≈ 10 µM).
Compound `CC[C@H](C)[C@H](NC(=O)[C@H](CCCCN)NC(=O)[C@H](CCCCN)NC(=O)CNC(=O)[C@H](CCCCN)NC(=O)[C@]1(C)CCCC=CCCC[C@](C)(NC(=O)CN)C(=O)N[C@@H](Cc2ccccc2)C(=O)N[C@@H](CO)C(=O)N[C@@H](CCCCN)C(=O)N1)C(=O)N[C@@H](CCCCN)C(=O)N[C@@H](CC(N)=O)C(=O)N[C@@H](CC(C)C)C(=O)N[C@@H](CC(C)C)C(=O)N[C@@]1(C)CCCC=CCCC[C@@](C)(C(=O)NCC(N)=O)NC(=O)[C@H](CC(C)C)NC(=O)CNC(=O)[C@H](CO)NC1=O` [compound 36] (H-G[S5]FSK[S5]KGKKIKNLL[S5]SGL[S5]G-NH2; staple 2-6, 16-20) returned a 50% inhibitory concentration (IC50) at 90 min in data set [1] of 63 µg/mL (≈ 27.7 µM). The half-inhibitory concentration (IC50) at 48 hours in data set [2] is 67 µg/mL (≈ 29.5 µM).
In turn, `CC[C@H](C)[C@H](NC(=O)[C@H](CCCCN)NC(=O)[C@H](CCCCN)NC(=O)CNC(=O)[C@H](CCCCN)NC(=O)[C@]1(C)CCCC=CCCC[C@](C)(NC(=O)CN)C(=O)N[C@@H](Cc2ccccc2)C(=O)N[C@@H](CO)C(=O)N[C@@H](CCCCN)C(=O)N1)C(=O)N[C@@H](CCCCN)C(=O)N[C@@H](CC(N)=O)C(=O)N[C@@H](CC(C)C)C(=O)N[C@@H](CC(C)C)C(=O)N[C@@]1(C)CCCC=CCCC[C@@](C)(C(=O)NCC(N)=O)NC(=O)[C@H](CCCCN)NC(=O)CNC(=O)[C@H](CO)NC1=O` [compound 37] (H-G[S5]FSK[S5]KGKKIKNLL[S5]SGK[S5]G-NH2; staple 2-6, 16-20) had an IC50 at 90 min in data set [1] above 200 µg/mL. Also, in data set [2], the IC50 at 48 hours was above 200 µg/mL.

Values taken from patent US20240247035A1, “STAPLED ANTIMICROBIAL PEPTIDES (STAMPS) AND USES THEREOF” (Lytica Therapeutics, Inc., priority 2021, published 2024).
